In patent US10508120B2, “TYK2 inhibitors and uses thereof” (Nimbus Lakshmi, Inc., priority 2017, dated 2019):

Legend:
[1] = target: human TYK2 (JH2domain-pseudokinase) (Homo sapiens (Human), UniProt P29597); experiment: TYK2 JH2 Domain Binding Assay (KINOMEscan)
In short: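 Competition binding of an NFkB-DBD fusion of human TYK2 JH2 (G556–D888), expressed in HEK293 and used as crude extract at <0.1 nM, against immobilized ligand beads; 1 h at room temperature in PBS/Tween/DTT/BSA buffer, 0.9% DMSO.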

[2] = target: JAK2/JAK2 homdimeric complex (Homo sapiens (Human), UniProt O60674); experiment: GM-CSF Induced pSTAT5 in Human PBMC; type: cell-based; conditions: GM-CSF 5 ng/mL for 20 minutes, pSTAT5 by MSD, read-out: PBMC_GMCSF_pSTAT5 IC50
Sequence of JAK2/JAK2 homdimeric complex (O60674 whole entry, the tested form may be a part): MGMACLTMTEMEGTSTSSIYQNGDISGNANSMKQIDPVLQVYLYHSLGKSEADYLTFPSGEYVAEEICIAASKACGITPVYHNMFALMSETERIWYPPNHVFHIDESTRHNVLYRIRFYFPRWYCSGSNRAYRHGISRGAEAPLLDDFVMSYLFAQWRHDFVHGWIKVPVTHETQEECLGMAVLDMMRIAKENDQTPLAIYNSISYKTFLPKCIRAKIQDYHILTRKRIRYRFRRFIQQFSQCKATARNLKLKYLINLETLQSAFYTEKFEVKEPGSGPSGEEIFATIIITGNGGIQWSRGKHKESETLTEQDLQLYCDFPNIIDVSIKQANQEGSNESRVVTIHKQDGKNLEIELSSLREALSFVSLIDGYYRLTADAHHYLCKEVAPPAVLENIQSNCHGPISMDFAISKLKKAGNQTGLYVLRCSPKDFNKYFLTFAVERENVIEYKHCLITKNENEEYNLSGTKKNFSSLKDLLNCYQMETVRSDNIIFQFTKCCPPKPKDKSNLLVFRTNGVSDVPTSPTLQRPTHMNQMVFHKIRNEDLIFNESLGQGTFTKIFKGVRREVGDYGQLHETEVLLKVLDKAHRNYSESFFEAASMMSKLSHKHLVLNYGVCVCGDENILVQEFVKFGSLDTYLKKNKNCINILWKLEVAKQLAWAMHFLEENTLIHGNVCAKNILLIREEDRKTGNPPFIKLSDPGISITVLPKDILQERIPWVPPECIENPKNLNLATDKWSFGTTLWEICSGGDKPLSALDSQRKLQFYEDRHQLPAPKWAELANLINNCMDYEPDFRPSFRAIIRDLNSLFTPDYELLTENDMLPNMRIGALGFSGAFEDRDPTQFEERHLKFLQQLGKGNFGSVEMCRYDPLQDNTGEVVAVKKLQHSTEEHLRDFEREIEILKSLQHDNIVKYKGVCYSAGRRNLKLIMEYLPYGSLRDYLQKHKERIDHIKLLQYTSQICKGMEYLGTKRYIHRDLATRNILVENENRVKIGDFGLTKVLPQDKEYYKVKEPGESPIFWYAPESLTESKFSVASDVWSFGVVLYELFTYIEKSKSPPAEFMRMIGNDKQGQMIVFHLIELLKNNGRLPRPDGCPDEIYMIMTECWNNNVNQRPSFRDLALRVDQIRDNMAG
Sequence of JAK2/JAK2 homdimeric complex (P32927 17-897 partner): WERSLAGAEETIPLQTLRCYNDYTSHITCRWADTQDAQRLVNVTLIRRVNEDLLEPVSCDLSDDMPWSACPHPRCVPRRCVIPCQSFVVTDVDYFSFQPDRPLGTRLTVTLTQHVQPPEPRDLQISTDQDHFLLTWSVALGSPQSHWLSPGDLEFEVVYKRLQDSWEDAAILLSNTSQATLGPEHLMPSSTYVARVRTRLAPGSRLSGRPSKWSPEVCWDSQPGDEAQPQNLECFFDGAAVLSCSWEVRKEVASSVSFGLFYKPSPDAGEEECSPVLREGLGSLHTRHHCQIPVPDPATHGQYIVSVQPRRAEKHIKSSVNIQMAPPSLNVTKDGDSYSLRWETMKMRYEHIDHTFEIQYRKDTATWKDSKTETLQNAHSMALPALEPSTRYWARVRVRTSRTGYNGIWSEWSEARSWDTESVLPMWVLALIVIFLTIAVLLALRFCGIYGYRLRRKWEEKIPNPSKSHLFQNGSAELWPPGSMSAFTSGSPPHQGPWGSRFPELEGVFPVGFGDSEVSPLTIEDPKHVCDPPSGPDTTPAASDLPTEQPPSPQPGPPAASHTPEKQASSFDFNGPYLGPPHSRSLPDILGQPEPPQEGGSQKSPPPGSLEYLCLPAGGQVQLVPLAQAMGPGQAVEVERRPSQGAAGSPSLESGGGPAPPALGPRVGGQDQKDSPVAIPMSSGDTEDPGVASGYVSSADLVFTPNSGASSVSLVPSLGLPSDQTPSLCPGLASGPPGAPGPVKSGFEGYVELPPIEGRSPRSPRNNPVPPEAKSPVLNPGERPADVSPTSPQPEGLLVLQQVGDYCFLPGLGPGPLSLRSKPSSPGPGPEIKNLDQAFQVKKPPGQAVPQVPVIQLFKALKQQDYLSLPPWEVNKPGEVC

Tyk2 kinase domain (DH1) = Tyk2 kinase domain (DH1) (Homo sapiens (Human), UniProt P29597); experiment: Tyk2 Radioactive Kinase Assay; type: biochemical; conditions: compound at 10 μM; ATP 10 μM; read-out: Tyk2 JH1% Inhibition @ 10 μM
Sequence of Tyk2 kinase domain (DH1) (P29597 897-1176): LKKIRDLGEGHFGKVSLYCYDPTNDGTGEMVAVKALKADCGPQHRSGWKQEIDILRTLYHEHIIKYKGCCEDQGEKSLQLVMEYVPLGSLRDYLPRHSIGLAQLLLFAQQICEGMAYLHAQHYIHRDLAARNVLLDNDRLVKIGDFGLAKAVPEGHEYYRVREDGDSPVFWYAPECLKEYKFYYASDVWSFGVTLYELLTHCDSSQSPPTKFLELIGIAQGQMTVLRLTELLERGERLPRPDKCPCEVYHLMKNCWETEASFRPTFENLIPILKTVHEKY
In short: (§1)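 Single-point screen: 10 μM test compound, radioactive kinase read-out, percent inhibition reported for each kinase domain.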

[3] = target: Tyk2/JAK2 (heterodimeric complex) (Homo sapiens (Human), UniProt P29597); experiment: IL-12 Induced pSTAT4 in Human PBMC; type: cell-based; conditions: 1.7 ng/mL IL-12
Sequence of Tyk2/JAK2 (heterodimeric complex) (P29597 whole entry, other chains not shown): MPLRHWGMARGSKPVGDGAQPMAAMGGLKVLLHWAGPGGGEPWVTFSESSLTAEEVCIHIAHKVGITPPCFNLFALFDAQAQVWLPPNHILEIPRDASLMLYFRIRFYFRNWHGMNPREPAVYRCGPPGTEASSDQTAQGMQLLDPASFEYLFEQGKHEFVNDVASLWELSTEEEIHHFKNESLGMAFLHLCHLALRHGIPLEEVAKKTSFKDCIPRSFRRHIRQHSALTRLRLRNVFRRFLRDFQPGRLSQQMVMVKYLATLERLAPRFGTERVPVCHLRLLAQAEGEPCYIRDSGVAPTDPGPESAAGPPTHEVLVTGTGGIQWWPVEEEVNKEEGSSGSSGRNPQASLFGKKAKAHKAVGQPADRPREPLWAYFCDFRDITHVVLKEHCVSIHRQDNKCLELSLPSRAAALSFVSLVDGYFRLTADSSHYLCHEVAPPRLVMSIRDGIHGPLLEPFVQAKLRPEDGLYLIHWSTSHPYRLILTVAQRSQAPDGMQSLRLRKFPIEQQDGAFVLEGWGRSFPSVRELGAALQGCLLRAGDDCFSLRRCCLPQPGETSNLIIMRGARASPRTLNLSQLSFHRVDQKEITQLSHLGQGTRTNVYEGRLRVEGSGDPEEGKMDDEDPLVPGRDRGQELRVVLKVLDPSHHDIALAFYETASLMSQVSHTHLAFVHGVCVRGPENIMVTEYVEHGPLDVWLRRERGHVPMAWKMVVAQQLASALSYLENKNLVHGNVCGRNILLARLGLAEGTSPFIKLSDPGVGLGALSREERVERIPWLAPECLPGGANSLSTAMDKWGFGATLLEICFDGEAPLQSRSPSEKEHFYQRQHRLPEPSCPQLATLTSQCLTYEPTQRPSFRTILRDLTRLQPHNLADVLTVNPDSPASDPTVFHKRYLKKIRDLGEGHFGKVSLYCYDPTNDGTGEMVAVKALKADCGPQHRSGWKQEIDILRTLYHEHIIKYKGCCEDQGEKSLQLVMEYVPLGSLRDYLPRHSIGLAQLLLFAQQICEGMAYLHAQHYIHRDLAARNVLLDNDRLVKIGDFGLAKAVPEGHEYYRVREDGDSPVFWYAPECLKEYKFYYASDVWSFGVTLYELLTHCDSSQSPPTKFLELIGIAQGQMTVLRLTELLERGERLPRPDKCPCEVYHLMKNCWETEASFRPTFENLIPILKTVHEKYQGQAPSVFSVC
Text: The IL-12 Induced pSTAT4 assay evaluates the inhibition of IL-12 induced STAT4 phophorylation mediated by Tyk2/JAK2 (heterodimeric complex).

JAK2 kinase domain (JH1) = JAK2 kinase domain (JH1) (Homo sapiens (Human), UniProt O60674); experiment: JAK2 Radioactive Kinase Assay; type: biochemical; conditions: compound at 10 μM; ATP 10 μM; read-out: JAK2 JH1% Inhibition @ 10 μM
Sequence of JAK2 kinase domain (JH1) (O60674 849-1124): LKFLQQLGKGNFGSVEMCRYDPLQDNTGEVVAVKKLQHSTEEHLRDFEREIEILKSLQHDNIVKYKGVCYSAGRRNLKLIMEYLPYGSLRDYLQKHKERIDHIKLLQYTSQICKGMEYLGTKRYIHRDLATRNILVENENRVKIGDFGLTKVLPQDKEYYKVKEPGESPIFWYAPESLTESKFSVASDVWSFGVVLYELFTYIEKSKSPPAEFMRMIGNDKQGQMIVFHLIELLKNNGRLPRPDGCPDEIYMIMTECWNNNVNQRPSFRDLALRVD
In short: as §1

Sequence of human TYK2 (JH2domain-pseudokinase) (P29597 556-888): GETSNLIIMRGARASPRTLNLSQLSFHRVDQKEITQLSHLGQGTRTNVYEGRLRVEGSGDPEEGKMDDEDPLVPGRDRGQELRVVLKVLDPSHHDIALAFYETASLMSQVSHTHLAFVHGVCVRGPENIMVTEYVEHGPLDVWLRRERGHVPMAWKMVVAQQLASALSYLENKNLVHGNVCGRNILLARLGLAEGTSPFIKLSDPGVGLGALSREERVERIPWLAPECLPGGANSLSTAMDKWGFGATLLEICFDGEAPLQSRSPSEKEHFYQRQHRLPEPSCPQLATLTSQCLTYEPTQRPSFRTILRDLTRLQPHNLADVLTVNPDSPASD

| SMILES | Kd [1] | IC50 [2] | inhibition at 10 µM (Tyk2 kinase domain (DH1)) | IC50 [3] | inhibition at 10 µM (JAK2 kinase domain (JH1)) |
| --- | --- | --- | --- | --- | --- |
| CNc1cc(Nc2cccn(-c3cc(C)nn3C)c2=O)nc2c(C(=O)NC3CCC3)cnn12 [I-342] | 0.2 to 1 nM | > 12500 nM | < 50% | < 100 nM | < 50% |
| CNc1cc(Nc2cccn([C@H]3CC[C@H](OC)CC3)c2=O)nc2c(C(=O)NC3CC3)cnn12 [I-343] | < 0.2 nM | > 12500 nM | < 50% | < 100 nM | < 50% |
| CNc1cc(Nc2cccn([C@H]3CC[C@H](OC)CC3)c2=O)nc2c(C(=O)N[C@H]3C[C@H]3F)cnn12 [I-344] | < 0.2 nM | > 12500 nM | < 50% | < 100 nM | < 50% |
| CNc1cc(Nc2cccn([C@H]3CC[C@H](OC)CC3)c2=O)nc2c(C(=O)NC3CCC3)cnn12 [I-345] | < 0.2 nM | > 50000 nM | < 50% | < 100 nM | < 50% |
| CNc1cc(Nc2cccnc2OC)nc2c(C(=O)NCC(C)(C)CO)cnn12 [I-346] | < 0.2 nM | > 2500 nM | < 50% | < 100 nM | < 50% |
| [2H]C([2H])([2H])Oc1ncccc1Nc1cc(NC)n2ncc(C(=O)NCC(C)(C)CO)c2n1 [I-347] | < 0.2 nM | > 50000 nM | < 50% | < 100 nM | < 50% |
| CNc1cc(Nc2cccnc2OC2CC2)nc2c(C(=O)NCC(C)(C)CO)cnn12 [I-350] | < 0.2 nM | > 50000 nM | < 50% | < 100 nM | < 50% |
| CNc1cc(Nc2cccn([C@H]3CCCOC3)c2=O)nc2c(C(=O)NC3CC3)cnn12 [I-352] | < 0.2 nM | > 50000 nM | < 50% | < 100 nM | < 50% |
| CNc1cc(Nc2cccn([C@H]3CCCOC3)c2=O)nc2c(C(=O)NC3CCC3)cnn12 [I-354] | < 0.2 nM | > 2500 nM | < 50% | < 100 nM | < 50% |
| CNc1cc(Nc2cccn([C@H]3CC[C@@H](OC)CC3)c2=O)nc2c(C(=O)N[C@H]3C[C@H]3F)cnn12 [I-357] | < 0.2 nM | > 2500 nM | < 50% | < 100 nM | < 50% |
| CNc1cc(Nc2cccn([C@H]3CC[C@@](C)(OC)CC3)c2=O)nc2c(C(=O)NC3CC3)cnn12 [I-359] | < 0.2 nM | > 12500 nM | < 50% | 100 to 500 nM | < 50% |
| CNc1cc(Nc2cccn([C@H]3CC[C@@](C)(OC)CC3)c2=O)nc2c(C(=O)N[C@H]3C[C@H]3F)cnn12 [I-360] | < 0.2 nM | > 50000 nM | < 50% | < 100 nM | < 50% |
| CNc1cc(Nc2cccn([C@H]3CC[C@](C)(OC)CC3)c2=O)nc2c(C(=O)N[C@H]3C[C@H]3F)cnn12 [I-362] | < 0.2 nM | > 50000 nM | < 50% | < 100 nM | < 50% |
| CNc1cc(Nc2cccn(CC3CCCCO3)c2=O)nc2c(C(=O)N[C@H]3C[C@H]3F)cnn12 (stereo partly shown) [I-365] | < 0.2 nM | > 50000 nM | < 50% | < 100 nM | < 50% |
| CNc1cc(Nc2cccn(-c3nc(C)co3)c2=O)nc2c(C(=O)NC3CC3)cnn12 [I-368] | < 0.2 nM | > 12500 nM | < 50% | < 100 nM | < 50% |
| CNc1cc(Nc2cccn(-c3nc(C)co3)c2=O)nc2c(C(=O)N[C@H]3C[C@H]3F)cnn12 [I-369] | < 0.2 nM | > 50000 nM | < 50% | < 100 nM | < 50% |
| [2H]C([2H])([2H])Oc1ncccc1Nc1cc(NC)n2ncc(C(=O)N[C@H]3CC[C@@H]3O)c2n1 [I-373] | < 0.2 nM | > 50000 nM | < 50% | < 100 nM | < 50% |
